In US10220040B2, “Compounds, compositions and methods useful for cholesterol mobilization” (Cerenis Therapeutics Holding SA, priority 2010, dated 2019):

Tests used:
[1] = system: New Zealand rabbits; experiment: Plaque regression in high-cholesterol diet fed New Zealand rabbits; type: in vivo, rabbit
Procedure: FIG. 20A-M: Plaque regression in rabbits treated with Compound IIa. New Zealand rabbits (n=15) with atherosclerotic plaques developed after 2 months of high-cholesterol diet, were treated with Compound IIa at 30, 100 and 300 μg/kg once a day by oral gavage for 4 weeks. FIG. 20A: lipids extracted from aortas were analyzed by GC/MS for cholesterol concentration. Dark bars, unesterified cholesterol; superimposed gray bars, total cholesterol. *p<0.05. FIG. 20B, FIG. 20C and FIG. 20D: Plasma VLDL cholesterol, LDL cholesterol and HDL cholesterol were resolved as described in FIG. 2. The results are expressed as the percentage from pre-dose. FIG. 20E: apoB concentration in plasma was determined by Western blot analysis. FIG. 20F: triglycerides were measured in the plasma using the kit from Biolabo. FIG. 20G: the bile acids concentrations in liver were determined using an enzymatic kit. FIG. 20H and FIG. 20K: hematoxylin/eosin staining of aortas from rabbits dosed with vehicle (FIG. 20H) or Compound IIa at 300 μg/kg (FIG. 20K). FIG. 20I and FIG. 20L: smooth muscle cells staining of aortas from rabbits dosed with vehicle (FIG. 20I) or Compound IIa at 300 μg/kg (FIG. 20L). FIG. 20J and FIG. 20M: macrophages and monocytes staining of aortas from rabbits dosed with vehicle (FIG. 20J) or Compound IIa at 300 μg/kg (FIG. 20M).
FIG. 21A-F: Functionality of plasma from high-cholesterol diet fed rabbits treated with Compound IIa. FIG. 21A: ApoA-I concentration in plasma was measured by SELDI-TOF analysis. Purified ApoA-I from homo-sapiens (MWSELDI=28083 Da) was used as a reference for determination of rabbit ApoA-I (MWSELDI=27838 Da) concentration. The results are expressed as the percentage from pre-dose. FIG. 21B: ApoA-I mRNA level was determined using the QPCR technique. Note the overall decrease in the HDL particle size of treated animals. FIG. 21C; HDL from rabbit plasma were separated according to the size of the different HDL particles using the Lipoprint® system. The data were expressed as the percentage for each HDL subpopulation set to the HDL population in the pre-dose animals. Two main HDL particle sub-populations were quantified (high and intermediate—dark and gray bars respectively). FIG. 21D: example of lipoprotein profiles of rabbit treated with vehicle (gray line) and with Compound IIa (300 μg/kg, dark line) using the Lipoprint® separation technique. FIG. 21E and FIG. 21F: determination of cholesterol efflux capacity of plasma and rabbit HDL, respectively, using pre-loaded [^3H]-cholesterol-oxLDL macrophages. The results are expressed as a percentage of cholesterol efflux. *p<0.05, **p<0.005.
After 2 months of High Cholesterol Diet feeding (0.5% cholesterol) and a wash-out period of 2 weeks, the animals were treated (by oral gavage) once day with Compound IIa at 30, 100 and 300 μg/kg for 4 weeks. Blood samples were collected before the dose administration on day 0 and after 4 weeks of administrations of Compound IIa. After final bleeding, the liver, gallbladder, heart, thoracic and abdominal aorta from heart (left ventricle) to iliac arteries were sampled.
Rabbit aortas were fixed in neutral formalin buffer and embedded in paraffin. Longitudinal 3 μm sections were stained with Hematoxylin-Eosin-Saffron for histology analysis. The tissue sections were deparaffinized and incubated in protein-free block to inhibit the nonspecific binding of primary monoclonal antibodies used for the immunostaining of rabbit monocytes and macrophages (RAM11 obtained from Dako Corp. 1:100 dilution) and smooth muscle cell-specific actin (HHF35 obtained from Dako Corp. 1:100 dilution). Secondary biotinylated […] antibody was used at 1:300 dilution (Dako).
The issue of whether stimulation of the P2Y13r pathway could affect the regression of atherosclerosis pre-induced in the high-cholesterol diet fed rabbits was also addressed. […]

[2] = system: mice; experiment: Bile acids physiology after one week daily oral treatment; type: in vivo; details: oral gavage once daily for a week (0.03 mg/kg)
Procedure: FIG. 13A-B: Single-dose effect of Compound IIa on bile acids secretion after one week treatment. Mice were treated daily with Compound IIa (0.03 mg/kg) by oral gavage. On the day of sacrifice, the mice were fasted for 3 hours followed by an oral gavage (same concentration). 4 hours later the bile content was analyzed. FIG. 13A: data are expressed as the concentration of bile acids. FIG. 13B: data are expressed as the pool of bile acids per mouse weight (*p<0.05). Group of animals n=10.
In the previous experiments, illustrative compounds of the invention were administrated once and the impact on bile physiology was measured after 6 hours. Compound IIa was administrated by oral gavage once daily for a week to allow observation of the consequences on bile physiology of a longer treatment. On the day of sacrifice, the conditions were similar to the dose response experiments. The net impact of Compound IIa on the bile secretion was observed.

[3] = orally, up to 0.3 mg/kg for 4 weeks

CN(C)c1ncc(CN2CCC(c3cc(O)nc(N4CCOCC4)n3)CC2)cn1 [Compound IIa, 6-[1-(2-Dimethylaminopyrimidin-5-ylmethyl)-piperidin-4-yl]-2-morpholin-4-yl-pyrimidin-4-ol]
regression of atherosclerotic plaques in aorta (decrease of cholesterol content of the entire artery) ([1]; orally, doses up to 0.3 mg/kg for 4 weeks): 30%
HDL cholesterol and rabbit apoA-I (HPLC, SELDI-TOF) [1, 3]: trend towards an increase
VLDL and LDL cholesterol [1, 3]: decreased slightly
pre-established atherosclerotic plaques in aortas of rabbits fed with cholesterol chow ([1]; summary statement): induced the regression
apoA-I mRNA expression in the liver ([1]; treated rabbits): increase
bile acid content in the liver ([1]; treated rabbits): increased
mRNA expressions of LDL receptors and SR-BI in the liver (QPCR) ([1]; treated rabbits): No change
plasma apoA-I ([1]; treated rabbits): increase
volume of the individual bile compared to vehicle treatment [2]: significant increase
